Measured values published in patent US9717671B2, “Composition for improving skin, hair and coat health containing flavanones” (Nestec S.A., priority 2003, dated 2017).

Experiments:
[1] = system: Human immortalized keratinocytes (HaCaT); assay: Cytotoxicity assay (LDH activity in supernatant as a measure for cell death); assay type: cell-based; settings: for cell death (LDH activity): normal culture conditions (without menadione)
Protocol: FIG. 1: HaCat cells were incubated with 10 μM hesperetin (hp, red bars) or low 10 μM hesperetin-7-O-glucuronide (hp-7-O-gluc, yellow bars) or equal amounts of DMSO as a control (blue bars) and treated with or without menadione for additional 5 h. The supernatant was analyzed for lactate dehydrogenase (LDH) activity and results were expressed relative to cells which were lysed with Triton X-100® before analysis (100% death). Human immortalized keratinocytes (HaCaT) were incubated with 10 μM hesperetin, 10 μM hesperetin-7-O-glucuronide or equal amounts of DMSO as a negative control for 16 h and 1 h before challenge. Cells were then treated with 100 μM menadione, a xenobiotic which generates reactive oxygen species intracellularly. Non-menadione treated cells were used as a positive control. After 5 h the supernatant was analysed for lactate dehydrogenase (LDH) activity as a measure for cell death using the CytoTox 96 non-radioactive cytotoxicity assay (Promega, USA).

[2] = system: rat skin; assay: Histopathological analysis of rat skin, hesperidin growth trial; assay type: in vivo, female wistar rats; settings: rats fed hesperidin diet (0.1% and 0.5%) from weaning to 12 weeks of age, vs control diet
From the text: FIG. 3: Histopathological analysis of rat skin supplemented with hesperidin. 6 μm paraffin sections were de-waxed, stained with hematoxylin/eosin and mounted. Representative images in two magnifications are shown for the control group (A and D) and the groups supplemented with hesperidin (0.1%: B and E, 0.5% C and F).
(§1) Rat skin biopsies were obtained from the Heperidin growth trial (FIG. 2). Dorsal skin was excised, one part was fixed in 4% PFA and paraffin embedded, one part was cryo-preserved and another part was immediately frozen in liquid nitrogen.
Rat skin was dissected and fixed for 4 days in 4% paraformaldehyde in PBS (pH 7.4) at 4° C. and embedded in paraffin using a Leica Microsystem embedding apparatus. The tissues were washed in PBS and saline (0.9% NaCl) and dehydrated by passing them through saline solutions with increasing ethanol concentrations: 30 min each in 30%, 50%, 70%, 90%, 99%, 100% and an additional hour in 100%. Tissue samples were incubated twice for 30 min in xylene, followed by 2-3 h and 3 h incubations in paraffin wax at 60° C. 6 μm thick paraffin sections were cut using a Leica Microtome. Sections were de-waxed 5 min in xylene and dehydrated by passing them through a series of solutions with decreasing ethanol concentrations: 1 min each in 100%, 96%, 90%, 80%, 70%, and 50% ethanol. Finally, they were transferred into destilled water and stained. […]

[3] = system: CD1d1 antigen; assay: Real-time PCR of rat skin total RNA, CD1d1 expression; assay type: in vivo, female wistar rats; settings: vs control diet
Protocol: (§2) FIG. 4: Real-time PCR analysis of total RNA isolated from rat skin fed either a control diet (ctrl) or a hesperidin-supplemented diet (0.1% Hp, 0.5% Hp) for the expression of CD1d1 and interleukin 6 (IL-6). Samples were analyzed in 3 pools containing 4 rats each and obtained Ct values are shown for CD1d1 in A and IL-6 in B. Dots represent averages of technical triplicates, bars the total average per group. Fold changes in relative expression of the supplementation compared to control diet and relative to a housekeeping gene are shown in C. The control diet was set to 1 fold and is represented by a thick line. Confident intervals were calculated using ANOVA.
as §1
(§3) Skin samples were homogenized with Lysing Matrix D, total RNAs were extracted using the ToTally RNA™ Kit following the manufacturer's instructions. RNA was eluted with 40 μl of nuclease-free water.
(§4) The quantification was performed using the Ribogreen® RNA quantitation Kit on 96-well plates and a fluorescence microplate reader according to the manual. Measurements were done in duplicate. The samples were diluted either 1:680 or 1:3400 in a final volume of 100 μl 1×TE buffer. […]
(§5) Data were analysed by ANOVA. […]

[4] = system: interleukin 6 (IL-6); assay: Real-time PCR of rat skin total RNA, IL-6 expression; assay type: in vivo, female wistar rats; settings: rats fed 0.5% hesperidin diet, vs control diet
Protocol: as §2, §1, §3, §4, §5

Compound: COc1ccc([C@@H]2CC(=O)c3c(O)cc(O)cc3O2)cc1O [hesperetin]
- cell death (LDH activity) ([1]; 10 μM, vs DMSO control): reducing cell death

Compound: COc1ccc([C@@H]2CC(=O)c3c(O)cc(O[C@@H]4O[C@H](CO[C@@H]5O[C@@H](C)[C@H](O)[C@@H](O)[C@H]5O)[C@@H](O)[C@H](O)[C@H]4O)cc3O2)cc1O [hesperidin]
- number of inflammatory cells in skin (histopathology) [2]: reduced number of inflammatory cells
- CD1d1 mRNA levels in skin ([3]; rats fed 0.1% hesperidin diet): significantly decreased
- CD1d1 mRNA levels in skin ([3]; rats fed 0.5% hesperidin diet): significantly decreased
- IL-6 mRNA levels in skin [4]: significantly reduced

Compound: COc1ccc([C@@H]2CC(=O)c3c(O)cc(O[C@@H]4O[C@H](C(=O)O)[C@@H](O)[C@H](O)[C@H]4O)cc3O2)cc1O [hesperetin-7-O-glucuronide]
- potency of protective effect compared to the aglycone ([1]; 10 μM each, FIG. 1): more potent compared to hp
- protective effect against cell death (LDH activity) ([1]; 10 μM, challenged with 100 μM menadione for 5 h, vs DMSO control): even more pronounced
- cell death (LDH activity) ([1]; 10 μM, vs DMSO control): reducing cell death
